Two compounds from patent US9035056B2, “Pyrido[4,3-b]indole and pyrido[3,4-b]indole derivatives and methods of use” (Medivation Technologies, Inc., priority 2011, dated 2015) can be followed below.

The term inhibition denotes the change of the read-out against control, counted positive when it falls.

The structures appear in SMILES notation.

In this experiment the target is T1, human recombinant adrenergic α1D receptor (Homo sapiens, UniProt P25100).
T1 construct: expressed in transfected cells; host or cells: HEK-293
T1 sequence (P25100 1-572): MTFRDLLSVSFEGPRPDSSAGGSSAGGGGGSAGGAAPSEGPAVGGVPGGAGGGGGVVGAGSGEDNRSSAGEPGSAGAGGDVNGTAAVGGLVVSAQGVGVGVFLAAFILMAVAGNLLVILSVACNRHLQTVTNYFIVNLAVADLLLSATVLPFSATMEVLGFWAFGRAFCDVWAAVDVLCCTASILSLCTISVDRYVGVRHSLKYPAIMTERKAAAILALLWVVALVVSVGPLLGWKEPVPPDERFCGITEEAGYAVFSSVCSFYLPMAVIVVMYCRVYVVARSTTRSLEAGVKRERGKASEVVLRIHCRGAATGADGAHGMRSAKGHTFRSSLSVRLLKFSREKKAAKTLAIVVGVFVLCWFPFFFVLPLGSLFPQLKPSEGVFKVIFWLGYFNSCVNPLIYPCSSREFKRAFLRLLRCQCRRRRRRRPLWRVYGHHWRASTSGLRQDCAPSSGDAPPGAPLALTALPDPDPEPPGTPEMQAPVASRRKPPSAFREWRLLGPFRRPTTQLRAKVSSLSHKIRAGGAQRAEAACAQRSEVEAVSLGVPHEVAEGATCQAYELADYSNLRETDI
In words: Adrenergic α1D radioligand binding ([3H]Prazosin). Conditions: 0.1 μM compound; read-out: Percentage inhibition of ligand binding, Adrenergic α1D. On the procedure:
To evaluate in radioligand binding assays the activity of compounds of the invention, human recombinant adrenergic α1D receptor expressed in human embryonic kidney (HEK-293) cells (Kenny, B. et al, Br. J. Pharmacol. 115(6):981, 1995) in a 50 mM Tris-HCl buffer, pH 7.4, was used. Compounds of invention were incubated with 0.6 nM [^3H]Prazosin for 60 min at 25° C. Non-specific binding was estimated in the presence of 10 μM phentolamine. Receptor proteins were filtered and washed, the filters were then counted to determine [^3H]Prazosin specifically bound. Compounds were screened at 1 μM or lower, using 1% DMSO as vehicle. Biochemical assay results are presented as the percent inhibition of specific binding in Table 3.

`Cc1ccc2c(c1)c1c(n2/C=C2/CCCc3ccccc32)CCN(C)C1` [i-2]: the inhibition at 0.1 µM is 86%.
As for `Cc1ccc2c(c1)c1c(n2/C=C2\CCCc3ccccc32)CCN(C)C1` [i-3], the figure is 43%.
